Article PMC10002963, “[4+2]-Cycloaddition to 5-Methylidene-Hydantoins and 5-Methylidene-2-Thiohydantoins in the Synthesis of Spiro-2-Chalcogenimidazolones” (International Journal of Molecular Sciences, 2023)
≈ marks a conversion by molar mass, not a printed value. Like-named read-outs stand apart in the source and are kept apart here.

Assays:
VA13 cell line = assay: MTT cytotoxicity assay, VA13; type: cell-based, human
Procedure: (§1) Some of the obtained spiro-derivatives were tested for cytotoxicity using the standard MTT assay. Cytotoxicity was evaluated using the cell lines of various etiologies: breast cancer MCF7, human lung carcinoma A549, non-cancer human embryonic kidney cell line HEK293T, and non-cancer lung fibroblast VA13 cell line. Lung cancers and breast cancers are among the most common causes of tumor lesions and related death in the world, and non-cancerous cells were applied for the specificity of action evaluation. The results are shown in Table 5; the dose-response dependency graphs are available in Supplementary Information.
(§2) Cell cultures. Human embryonic kidney HEK293T cell line was kindly provided by Dr. E. Knyazhanskaya; immortalized human fibroblasts cell line VA13 was kindly provided by Dr. M. Rubtsova; human breast cancer cell line MCF7 and human lung adenocarcinoma cell line A549 were kindly provided by Dr. S. Dmitriev. MCF7, VA13, A549, and HEK293T cell lines were maintained in DMEM/F-12 (Thermo Fisher Scientific, Waltham, Massachusetts, USA) culture medium containing 10% fetal bovine serum (Thermo Fisher Scientific, Waltham, Massachusetts, USA) and 50 µg/mL penicillin and 0.05 mg/mL streptomycin at 37°C (Thermo Fisher Scientific, Waltham, Massachusetts, USA) in 5% CO2. Cells were maintained at 37°C in a humidified incubator MCO-18AC (Sanyo, Japan) supplied with 5% CO2. Cell cultures were tested for the absence of mycoplasma.
(§3) In Vitro Survival Assay (MTT Assay). The cytotoxicity was tested using the MTT (3-(4,5-dimethylthiazol-2-yl)2,5-diphenyl tetrazolium bromide) assay with some modifications. A total of 2500 cells per well for the MCF7, HEK293T cell lines, 3000 cells for the A549 cell line, or 4000 cells per well for the VA-13 cell line were plated out in 135 µL of DMEM-F12 media (Gibco, USA) in a 96-well plate and then incubated in the 5% CO2 incubator for first 20 h without treating. After this, 15 µL of media-DMSO solutions of tested substances were added to the cells (final DMSO concentrations in the media were 0,5% or less) and treated for65 h with 45 nM–100 µM (eight dilutions) of our substances (triplicate each) and doxorubicin as a control substance. Then the MTT reagent (Paneco LLC, Moscow, Russia) was added to cells up to the final concentration of 0.5 g/L (10 × stock solution in PBS was used), and cells were incubated for 2 h at 37 °C under an atmosphere of 5% CO2. Then the MTT solution was discarded, and 140 µL of DMSO (PharmaMed LLC, Russia) was added. The plates were swayed on a shaker (200 rpm) to dissolve the formazan. The absorbance was measured using a microplate reader (VICTOR ×5 Light Plate Reader, PerkinElmer, USA) at a wavelength of 555 nm (in order to measure formazan concentration). The results were used to construct dose-response graphs and to estimate IC50absvalues (IC50abs is the concentration resulting in a two-fold decrease in the number of cells in comparison with the untreated cells) and, in some cases, IC50 values (IC50 is the concentration resulting in half of the maximal cytotoxic effect) with GraphPadSoftware, Inc., San Diego, CA, USA.

A549 cell line = assay: MTT cytotoxicity assay, A549; type: cell-based, human
Procedure: as §1, §2, §3

HEK293T cell line = assay: MTT cytotoxicity assay, HEK293T; type: cell-based, human
Procedure: as §1, §2, §3

MCF7 cell line = assay: MTT cytotoxicity assay, MCF7; type: cell-based, human
Procedure: as §1, §2, §3

E. coli K-12 (WT) = assay: Minimal inhibitory concentration, E. coli K-12; type: cell-based, Escherichia coli; conditions: LB medium, overnight 37°C, >1000 = inactive in this test
Procedure: (§4) Then the minimal inhibitory concentration (MIC) was measured for E. coli BW25113 DTC and E. coli K-12 (WT) for the 12 most bacteriotoxic compounds from the plate test.
(§5) Determination of Minimal Inhibitory Concentration (MIC). MIC values were determined by monitoring growth in 96-well plates of E. coli cultures exposed to serial dilutions of compounds. Specifically, overnight E. coli BW25113 DTC and K12 cultures were diluted in 96-well plates to an OD590 of 0.01 in LB medium. The wells were then supplemented with the solution of each tested compound at concentrations of 1 mM, 500 µM, 250 µM, 125 µM, 62.5 µM, 31.25 µM, 15.63 µM, 7.81 µM, 3.91 µM, and 1.95 µM. Then the plates were incubated with shaking (200 r.p.m.) overnight at 37°C, and cell growth was assessed by scanning OD590 each well with a VictorX5 reader.

E. coli BW25113 DTC = assay: Minimal inhibitory concentration, E. coli BW25113 DTC; type: cell-based, Escherichia coli
Procedure: as §4, §5

[1] = VA13, 65-h treatment, MTT, Cmax 100 µM, read-out: IC50abs
[2] = A549, 65-h treatment, MTT, Cmax 100 µM, read-out: IC50abs
[3] = 65-h treatment, Cmax 100 µM, read-out: IC50abs
[4] = MCF7, 65-h treatment, MTT, Cmax 100 µM, read-out: IC50abs
[5] = MCF7, MTT, Table S1, read-out: IC50 (concentration resulting in half of the maximal cytotoxic effect)
[6] = VA13, MTT, Table S1, read-out: IC50 (concentration resulting in half of the maximal cytotoxic effect)
[7] = A549, MTT, Table S1, read-out: IC50 (concentration resulting in half of the maximal cytotoxic effect)
[8] = E. coli BW25113 DTC, LB medium, overnight 37°C, >1000 = inactive in this test
[9] = Table S1, read-out: IC50 (concentration resulting in half of the maximal cytotoxic effect)
[10] = Homo sapiens, MCF7, 65-h treatment, MTT, Cmax 100 µM, read-out: IC50abs
[11] = Homo sapiens, VA-13, VA13, 65-h treatment, MTT, Cmax 100 µM, read-out: IC50abs
[12] = Homo sapiens, A549, 65-h treatment, MTT, Cmax 100 µM, read-out: IC50abs
[13] = Homo sapiens, HEK-293T, 65-h treatment, Cmax 100 µM, read-out: IC50abs

| Compound | IC50 (VA13 cell line; [1]) | IC50 (A549 cell line; [2]) | IC50 (HEK293T cell line; [3]) | IC50 (MCF7 cell line; [4]) | MIC (E. coli K-12 (WT)) | MIC (E. coli BW25113 DTC; [8]) | other results |
| --- | --- | --- | --- | --- | --- | --- | --- |
| CC1=C(C)CC2(CC1)NC(=S)N(c1ccccc1F)C2=O (racemic) [Compound 54] | > 100 µM | 49.5 ± 5 µM | 29.6 ± 3 µM | – | – | – | – |
| CC1=C(C)CC2(CC1)NC(=S)N(c1ccccc1Cl)C2=O (racemic) [Compound 55] | > 100 µM | ~10 µM | ~5 µM | ~100 µM | >1000 µM | >1000 µM | IC50 (MCF7 cell line; [5]): 1.5 µM; IC50 (VA13 cell line; [6]): 1.9 µM; IC50 (A549 cell line; [7]): 2.1 µM; IC50 (HEK293T cell line; [9]): 3.1 µM |
| CC1=C(C)CC2(CC1)NC(=S)N(c1cccc(C)c1)C2=O (racemic) [Compound 56] | 98.7 ± 17.6 µM | > 100 µM | 22 ± 8 µM | – | – | – | – |
| CC1=C(C)CC2(CC1)NC(=S)N(c1ccc(F)cc1)C2=O (racemic) [Compound 58] | 45 ± 7.5 µM | 23.2 ± 3.5 µM | 13.7 ± 2.3 µM | 59 ± 13.3 µM | – | – | – |
| COc1ccc(N2C(=O)C3(CCC(C)=C(C)C3)NC2=S)cc1 (racemic) [Compound 60] | 75.3 ± 17 µM | 52.2 ± 5.7 µM | 10.2 ± 1.3 µM | 98.3 ± 19.8 µM | >1000 µM | >1000 µM | – |
| CC1=C(C)CC2(CC1)NC(=S)N(c1c(C)cccc1C)C2=O (racemic) [Compound 61] | – | ~10 µM | ~4 µM | ~100 µM | – | – | IC50 (MCF7 cell line; [5]): 0.9 µM; IC50 (VA13 cell line; [6]): 0.4 µM; IC50 (A549 cell line; [7]): 4.2 µM; IC50 (HEK293T cell line; [9]): 1.4 µM |
| O=C1N[C@@]2(C[C@@H]3C=C[C@H]2C3)C(=O)N1c1ccccc1 [Compound 28a] | – | – | – | – | – | – | IC50 (MCF7 cell line; [10]): > 100 µM; IC50 (VA13 cell line; [11]): > 100 µM; MIC (E. coli K-12 (WT); Escherichia coli): > 1000 µM; IC50 (A549 cell line; [12]): > 100 µM; MIC (E. coli BW25113 DTC; Escherichia coli, BW25113): > 1000 µM; IC50 (HEK293T cell line; [13]): > 100 µM |
| O=C1NC2(CC3C=CC2C3)C(=O)N1c1ccccc1 (centres unmarked) [Compound 28b] | > 100 µM | > 100 µM | > 100 µM | > 100 µM | >1000 µM | >1000 µM | – |
| O=C1N(c2ccccc2)C(=S)NC12CC1C=CC2C1 (centres unmarked) [Compound 34a] | – | – | – | – | – | – | IC50 (MCF7 cell line; [10]): > 100 µM; IC50 (VA13 cell line; [11]): > 100 µM; IC50 (A549 cell line; [12]): > 100 µM; IC50 (HEK293T cell line; [13]): 83 ± 3.7 µM |
| O=C1N(c2ccccc2F)C(=S)NC12CC1C=CC2C1 (centres unmarked) [Compound 35b] | > 100 µM | > 100 µM | 87.4 ± 9.9 µM | > 100 µM | >1000 µM | 1000 µM (≈ 288 µg/mL) | – |
| Cc1cccc(N2C(=O)C3(CC4C=CC3C4)NC2=S)c1 (centres unmarked) [Compound 37a] | > 100 µM | > 100 µM | > 100 µM | > 100 µM | – | – | – |
| COc1cccc(N2C(=O)C3(CC4C=CC3C4)NC2=S)c1 (centres unmarked) [Compound 38a] | > 100 µM | > 100 µM | – | > 100 µM | – | – | – |
